The source of these data is patent US8367659B2, “Oxazinyl isoflavonoid compounds, medicaments and use” (Marshall Edwards, Inc., priority 2007, dated 2013).

Series [1] relates to human umbilical vein smooth muscle cells (HUVSMC). Put plainly: Proliferation of human umbilical vein smooth muscle cells (MTT). It is filed as cell-based. The method in brief:
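HUVSMC (1.6×10^3 cells/well) serum-starved 20 h, pretreated 1 h with analogue at 10 μM final, then stimulated with 10% FCS. After ~5 days, when FCS controls were just confluent, MTT absorbance was read; value = test/control*100−100.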

For series [2], the system named is neonatal foreskin fibroblasts (NFF). Put plainly: Toxicity to normal cells, neonatal foreskin fibroblasts. It is filed as cell-based. Particulars: Fibroblast. The procedure: IC50 values were determined for each cell line. Cells were seeded in 96-well plates at an appropriate cell density as determined from growth kinetics analysis and cultured for 5 days in the absence and presence of the test compounds. Cell proliferation was assessed after the addition of 20 μl of 3-4,5 dimethylthiazol-2,5-diphenyl tetrazolium bromide (MTT, 2.5 mg/ml in PBS, Sigma) for 3-4 hrs at 37° C. according to manufacturer's instructions. IC50 values were calculated from semi-log plots of % of control proliferation on the y-axis against log dose on the x-axis.
The neonatal foreskin fibroblasts (NFF) were a gift from Dr. Peter Parsons (Queensland Institute of Medical Research). Rabbit kidney (RK-13) cells were obtained from Miller Whalley (Macquarie University). Both cell lines were cultured in RPMI supplemented with 10% FCS(CSL, Australia), penicillin (100 U/ml), streptomycin ([…]), L-glutamine (2 mM) and sodium bicarbonate (1.2 g/L), and cultured at 37° C. in a humidified atmosphere of 5% CO2. IC50 values were determined as described above.

Series [3] has as its system MDA-MB-468. Put plainly: Anti-cancer activity, MDA-MB-468 breast cancer cells (MTT). In kind it is cell-based. The following applies: Homo sapiens, MDA-MB-468, 120 h, 5 days.
The test system of series [4] is CP70. Put plainly: Anti-cancer activity, CP70 ovarian cancer cells (MTT). It is filed as cell-based. The following applies: 120 h, 5 days.
Series [5] deals with NCI-H460. Put plainly: Anti-cancer activity, NCI-H460 large cell lung cancer cells (MTT). The following applies: Homo sapiens, NCI-H460, 120 h, 5 days, read-out: IC50 μM, NCI-H460 Lung (NSCLC). In kind it is cell-based.
The subject of series [6] is cancer cell lines. Put plainly: Anti-cancer activity, cancer cell lines tested as a group (MTT). In kind it is cell-based. Particulars: read-out: IC50 against all cancer cell lines tested.
Series [7] deals with AA-induced ear oedema. Put plainly: Arachidonic acid (AA)-induced ear swelling in mice. It is filed as in vivo, BALB/c mice. Particulars: 25 mg/kg i/p; 1 h post-AA application. The protocol:
Groups of 5-6 female BALB/c mice (ARC, WA, Australia), weighing 15-21 g were injected intraperitoneally (i/p) with test compound at 25 mg/kg delivered in polyethylene glycol (PEG) 400: phosphate buffered saline (PBS) 1:1 or ethanol: propanediol: PBS 4:9:7 either 30 min prior to or immediately before the inflammogen was applied to the ears. Mice were anaesthetised using isoflurane and baseline thickness of both ears was measured using a spring micrometer. Each mouse received a total of 20 μL of either AA in ethanol (50 mg/ml or 200 mg/ml) or PMA in either ethanol or acetone (0.2 mg/ml) applied to the inner and outer surfaces of each pinna (i.e. 0.5 mg or 2 mg AA or 2 μg PMA per ear). Mice were anaesthetised again to re-measure the ears at 1 h post-AA application and 5 h after PMA. The difference in ear swelling pre- and post-application of inflammogen for each ear was calculated, and the average for the two ears of each mouse taken. The difference in mean swelling of each test group compared to the group given vehicle alone was calculated using a general ANOVA using Dunnett's Multiple Comparison test when multiple compounds were tested in the one experiment or a two-tailed […] t-test when only one compound was tested (Prism 4, Graphpad Software). The data has been presented graphically as the mean percentage inhibition of oedema, calculated as: […]. Results

Series [8] relates to unstimulated lymphocytes. Put plainly: Unstimulated lymphocytes, viable cell number (MTT). In kind it is cell-based, Skh-1:HR 1 (hairless) mice. Particulars: 10 μM; absence of mitogenic stimulation. The protocol: Male Skh-1:HR 1 (hairless) mice, approximately six weeks old were killed by cervical dislocation. Single cell suspensions were made from the spleen and erythrocytes were lysed in buffer (0.14 M NH4Cl, 17 mM Tris, pH 7.2). The remaining splenocytes were cultured in RPMI-1640 (Gibco) supplemented with 10% (v:v) FBS, 200 mM L-glutamine, penicillin/streptomycin and […] 2-mercaptoethanol. Splenocytes were added to quadruplicate wells containing either concanavalin A (ConA, Sigma-Aldrich—0.4 μg/well), LPS (Sigma-Aldrich—1 μg/well) or no mitogen, as well 10 μM of test compound in DMSO. Samples were analysed after 3 days incubation at 37° C. in 5% CO2 in air. Methylthiazoletetrazolium (MTT) is bioreduced by viable cells into a coloured formazan product that is soluble in DMSO. Thus the quantity of formazan product is directly proportional to the number of living cells in culture, and can be measured using a spectrophotometer at 570 nm. MTT was added to each well, incubated for a further 4 hrs and then colour developed with 0.04 N HCl in isopropanol. Culture supernatants were stored after collection at −80° C. and analysed by ELISA (BD Biosciences) for IFN-γ (a Th-1 cytokine) and for T cells alone, IL-6 (a Th-2 cytokine).

The mark [9] stands for this setting: normal, non-transformed cells, read-out: IC50 μM, NFF Fibroblast.
Where [10] appears, read: read-out: toxicity to normal fibroblast cell line / NFFs (IC50).

Like-named read-outs stand apart in the source and are kept apart here.

With `Oc1ccc(C2=Cc3cc4c(cc3OC2)OCN(Cc2ccccc2)C4)cc1` [Compound 1, 4-(3-Benzyl-2,3,4,8-tetrahydrochromeno[6,7-e][1,3]oxazin-7-yl)phenol], the IC50 in series [1] (Homo sapiens, average over three different assays, 4-5 days, read-out: average IC50, inhibition of proliferation of HUVSMC) was 15 µM; in series [2] (setting [9]), 15.1 µM; in series [2] (setting [10]), about 15 µM; in series [3] it was 5.25 ± 2.1 µM; in series [4] it was 5.51 ± 2.6 µM; in series [5], 4.61 µM. For the same molecule, the IC50 in series [6] lay within 5 to 20 µM. Further, in series [7], the “% Change compared with vehicle” value is given as −18%. In addition, the “Change in ear thickness (mean ± SD, × 0.01 mm)” value in series [7] is on record as 20 ± 0.9 × 0.01 mm. The “reduction of viable cell numbers” value in series [8] is recorded as “approximately 50%”.
Consider `CC(c1ccccc1)N1COc2cc3c(cc2C1)C=C(c1ccc(O)cc1)CO3` (centres unmarked) [Compound 2, 4-(3-(1-Phenylethyl)-2,3,4,8-tetrahydrochromeno[6,7-e][1,3]oxazin-7-yl)phenol], for which the “effect on proliferation of HUVSMCs induced by FCS” value in series [1] (10 μM, 10% FCS, 5 days, FIG. 8) was “significantly inhibited the proliferation”. The IC50 in series [2] (setting [9]) was 33.2 µM; in series [2] (setting [10]), over 30 µM; in series [3], 4.87 ± 2.6 µM; in series [4], 8.1 ± 3 µM; in series [5], 8.77 ± 3.7 µM; in series [6], 5 to 20 µM. Moreover, the “% Change compared with vehicle” value in series [7] is given as −39%. In addition, in series [7], the “Change in ear thickness (mean ± SD, × 0.01 mm)” value worked out at 15.9 ± 4.2 × 0.01 mm. Moreover, the “reduction of viable cell numbers” value in series [8] is recorded as “approximately 50%”.
